According to patent publication US20110077237A1, “KINASE INHIBITORS” (VERTEX PHARMACEUTICALS INCORPORATED, priority 2007, published 2011):

Tests used:
[1] = target: PKC delta kinase (Homo sapiens, UniProt Q05655); assay: PKC Delta coupled-enzyme kinase assay; assay type: biochemical; conditions: 46 nM PKC delta, 150 μM ATP, 30° C.; read-out: Ki PKC delta
Method: An assay buffer solution was prepared which consisted of 100 mM HEPES (pH 7.5), 10 mM MgCl2, 25 mM NaCl, 0.1 mM EDTA and 0.01% Brij. […] To 16 μL of this enzyme buffer, in a 384 well plate, was added 1 μL of VRT stock solution in DMSO. The mixture was allowed to equilibrate for 10 mins at 30° C. […] Ki values were calculated from initial rate data by non-linear regression using the Prism software package (Prism 4.0a, Graphpad Software, San Diego, Calif.).

[2] = target: PKC alpha kinase (Homo sapiens, UniProt P17252); assay: PKC Alpha coupled-enzyme kinase assay; assay type: biochemical; conditions: 4.5 nM PKC alpha, 130 μM ATP, 30° C.
Method: An assay buffer solution was prepared which consisted of 100 mM HEPES (pH 7.5), 10 mM MgCl2, 25 mM NaCl, 0.1 mM EDTA, 100 μM CaCl2 and 0.01% Brij. […] To 16 μL of this enzyme buffer, in a 384 well plate, was added 1 μL of VRT stock solution in DMSO. The mixture was allowed to equilibrate for 10 mins at 30° C. The enzyme reaction was initiated by the addition of 16 μL stock ATP solution prepared in assay buffer to a final assay concentration of 130 μM. Initial rate data was determined from the rate of change of absorbance at 340 nm (corresponding to stoichiometric consumption of NADH) using a Molecular Devices Spectramax plate reader (Sunnyvale, Calif.) over 15 mins at 30° C. For each Ki determination 12 data points covering the VRT concentration range of 0-20 μM were obtained in duplicate (DMSO stocks were prepared from an initial 10 mM VRT stock with subsequent 1:2 serial dilutions). Ki values were calculated from initial rate data by non-linear regression using the Prism software package (Prism 4.0a, Graphpad Software, San Diego, Calif.).

PKC delta kinase, sequence (Q05655 whole entry): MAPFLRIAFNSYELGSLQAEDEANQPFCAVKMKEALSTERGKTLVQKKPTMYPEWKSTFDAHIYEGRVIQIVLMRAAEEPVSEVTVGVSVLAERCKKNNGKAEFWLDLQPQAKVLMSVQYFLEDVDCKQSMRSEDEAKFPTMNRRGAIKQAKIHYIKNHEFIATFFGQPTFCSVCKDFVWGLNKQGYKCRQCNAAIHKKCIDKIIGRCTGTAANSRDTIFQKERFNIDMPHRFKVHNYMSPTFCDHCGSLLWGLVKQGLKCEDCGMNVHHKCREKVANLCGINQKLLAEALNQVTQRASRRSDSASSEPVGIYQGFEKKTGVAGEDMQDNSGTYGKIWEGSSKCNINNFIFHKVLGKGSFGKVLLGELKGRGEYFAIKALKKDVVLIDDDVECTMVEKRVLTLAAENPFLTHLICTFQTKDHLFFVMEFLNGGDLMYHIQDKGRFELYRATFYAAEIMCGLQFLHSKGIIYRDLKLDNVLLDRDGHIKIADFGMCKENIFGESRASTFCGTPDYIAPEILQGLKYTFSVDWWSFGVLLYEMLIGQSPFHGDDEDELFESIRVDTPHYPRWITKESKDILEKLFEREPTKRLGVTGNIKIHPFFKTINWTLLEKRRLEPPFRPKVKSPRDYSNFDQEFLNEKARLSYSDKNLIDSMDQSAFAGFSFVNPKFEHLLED

SMILES | Ki [1] | Ki [2]
Nc1ncccc1C(=O)c1cccc(N2CCCN(C(=O)c3sccc3Cl)CC2)n1 [compound 92] | 0.5 to 2.8 µM | 0.5 to 2.8 µM
C#Cc1cnc(N)c(C(=O)c2cccc(N3CCCNCC3)n2)c1 [compound 108] | – | < 0.05 µM
Cc1sc(N2CCCNCC2)nc1C(=O)c1cccnc1N [compound 109] | 0.5 to 2.8 µM | 0.5 to 2.8 µM
Nc1ncccc1C(=O)c1cncc(N2CCCNCC2)n1 [compound 157] | 0.05 to 0.5 µM | 0.5 to 2.8 µM
Nc1ncccc1C(=O)c1cncc(N2CCC(N)CC2)n1 [compound 161] | 0.5 to 2.8 µM | 0.5 to 2.8 µM
Nc1ncc(CCc2ccccc2)cc1C(=O)c1cccc(N2CCCNCC2)n1 [compound 187] | 0.05 to 0.5 µM | < 0.05 µM
Nc1ncc(Cc2ccccc2)cc1C(=O)c1cccc(N2CCCNCC2)n1 [compound 188] | 0.05 to 0.5 µM | < 0.05 µM
C=Cc1cnc(N)c(C(=O)c2cccc(N3CCNCC3)n2)c1 [compound 202] | – | < 0.05 µM
Cc1ccc(N2CCNCC2)nc1C(=O)c1cccnc1N [compound 230] | 0.5 to 2.8 µM | 0.5 to 2.8 µM
Nc1ncc(Br)cc1C(=O)c1cccc(N2CCNC(c3ccccc3)C2)n1 (centres unmarked) [compound 240] | 0.05 to 0.5 µM | < 0.05 µM
C=Cc1cnc(N)c(C(=O)c2cccc(N3CCNC(c4ccccc4)C3)n2)c1 (centres unmarked) [compound 241] | 0.05 to 0.5 µM | < 0.05 µM
CC[C@@H]1CNCCN1c1cccc(C(=O)c2cccnc2N)n1 [compound 243] | 0.05 to 0.5 µM | 0.5 to 2.8 µM
CC(C)=Cc1cnc(N)c(C(=O)c2cccc(N3CCCNCC3)n2)c1 [compound 246] | 0.05 to 0.5 µM | < 0.05 µM
Nc1ncccc1C(=O)c1cccc(N2CCNC(CO)C2)n1 (centres unmarked) [compound 303] | 0.05 to 0.5 µM | 0.5 to 2.8 µM
Nc1ncccc1C(=O)c1cccc(N2CCNC(c3ccc(Cl)cc3)C2)n1 (centres unmarked) [compound 307] | 0.5 to 2.8 µM | 0.5 to 2.8 µM
COc1ccc(C2CN(c3cccc(C(=O)c4cccnc4N)n3)CCN2)cc1 (centres unmarked) [compound 310] | 0.05 to 0.5 µM | 0.5 to 2.8 µM
Nc1ncccc1C(=O)c1cccc(N2CCNC(c3ccc(O)cc3)C2)n1 (centres unmarked) [compound 312] | 0.05 to 0.5 µM | –
Nc1ncccc1C(=O)c1cccc(N2CCNC(c3ccc(Cl)c(Cl)c3)C2)n1 (centres unmarked) [compound 313] | 0.05 to 0.5 µM | –
Nc1ncccc1C(=O)c1cccc(N2CCNC(c3cccc(C(F)(F)F)c3)C2)n1 (centres unmarked) [compound 314] | 0.05 to 0.5 µM | –

SMILES | Ki [1] | Ki [2]
Nc1ncccc1C(=O)c1nc(N2CCNCC2)ccc1Cl [compound 315] | 0.05 to 0.5 µM | –
Nc1ncccc1C(=O)c1nc(N2CCNCC2)ccc1C(F)(F)F [compound 316] | 0.05 to 0.5 µM | –
Nc1ncccc1C(=O)c1nc(N2CCNC(c3ccccc3)C2)ccc1C(F)(F)F (centres unmarked) [compound 317] | 0.05 to 0.5 µM | –
Nc1ncccc1C(=O)c1nc(N2CCCNCC2)ccc1C(F)(F)F [compound 318] | 0.05 to 0.5 µM | –
Nc1ncccc1C(=O)c1nc(N2CCNC(c3ccccc3)C2)ccc1Cl (centres unmarked) [compound 321] | 0.05 to 0.5 µM | –
Nc1ncccc1C(=O)c1nc(N2CCC(N)CC2)ccc1Cl [compound 322] | 0.05 to 0.5 µM | –
CC(C)C[C@H]1CN(c2ccc(Cl)c(C(=O)c3cccnc3N)n2)CCN1 [compound 323] | – | < 0.05 µM
Nc1ncccc1C(=O)c1nc(N2CCCNCC2)ccc1Cl [compound 324] | 0.05 to 0.5 µM | –
Nc1ncc(Br)cc1C(=O)c1nc(N2CCNCC2)ccc1C(F)(F)F [compound 325] | 0.05 to 0.5 µM | < 0.05 µM
Nc1ncc(Br)cc1C(=O)c1nc(N2CCNC(c3ccccc3)C2)ccc1C(F)(F)F (centres unmarked) [compound 326] | 0.05 to 0.5 µM | < 0.05 µM
C=Cc1cnc(N)c(C(=O)c2nc(N3CCNCC3)ccc2C(F)(F)F)c1 [compound 327] | – | < 0.05 µM
C=Cc1cnc(N)c(C(=O)c2nc(N3CCNC(c4ccccc4)C3)ccc2C(F)(F)F)c1 (centres unmarked) [compound 328] | 0.05 to 0.5 µM | < 0.05 µM
Nc1ncc(Br)cc1C(=O)c1nc(N2CCNCC2)ccc1Cl [compound 329] | 0.05 to 0.5 µM | –
C=Cc1cnc(N)c(C(=O)c2nc(N3CCNCC3)ccc2Cl)c1 [compound 330] | – | < 0.05 µM
Nc1ncc(Br)cc1C(=O)c1nc(N2CCNC(c3ccccc3)C2)ccc1Cl (centres unmarked) [compound 331] | 0.05 to 0.5 µM | –
Nc1ncccc1C(=O)c1nc(Cl)cnc1N1CCNCC1 [compound 340] | > 2.8 µM | > 2.8 µM
Nc1ncccc1C(=O)c1nc(N2CCNCC2)cnc1Cl [compound 343] | 0.05 to 0.5 µM | 0.5 to 2.8 µM
CCc1ccc(N2CCNCC2)nc1C(=O)c1cccnc1N [compound 348] | 0.05 to 0.5 µM | > 2.8 µM

The remaining lines, values ahead:

Ki [1] | Ki [2] | SMILES
0.05 to 0.5 µM | < 0.05 µM | C=Cc1cnc(N)c(C(=O)c2nc(N3CCNC(c4ccccc4)C3)ccc2Cl)c1 (centres unmarked) [compound 332]
> 2.8 µM | > 2.8 µM | NCC1CCCN(c2cccc(C(=O)c3cccnc3N)n2)C1 (centres unmarked) [compound 333]
0.05 to 0.5 µM | – | Cc1cccc(C2CN(c3cccc(C(=O)c4cccnc4N)n3)CCN2)c1 (centres unmarked) [compound 335]
0.5 to 2.8 µM | 0.5 to 2.8 µM | Cc1ccc(C2CN(c3cccc(C(=O)c4cccnc4N)n3)CCN2)cc1 (centres unmarked) [compound 336]
0.05 to 0.5 µM | 0.5 to 2.8 µM | CC(C)[C@H]1CN(c2ccc(C(F)(F)F)c(C(=O)c3cccnc3N)n2)CCN1 [compound 338]
0.05 to 0.5 µM | 0.5 to 2.8 µM | Cc1ccccc1C1CN(c2cccc(C(=O)c3cccnc3N)n2)CCN1 (centres unmarked) [compound 339]
> 2.8 µM | > 2.8 µM | Nc1ncccc1C(=O)c1nccc(N2CCNC(c3ccccc3)C2)n1 (centres unmarked) [compound 341]
0.05 to 0.5 µM | 0.5 to 2.8 µM | C=Cc1ccc(N2CCNCC2)nc1C(=O)c1cccnc1N [compound 342]
> 2.8 µM | > 2.8 µM | Nc1ncccc1C(=O)c1nccc(N2CCNCC2)n1 [compound 344]
> 2.8 µM | 0.5 to 2.8 µM | CC(C)C[C@H]1CN(c2ccnc(C(=O)c3cccnc3N)n2)CCN1 [compound 345]
0.05 to 0.5 µM | 0.5 to 2.8 µM | CCc1ccc(N2CCNC(c3ccccc3)C2)nc1C(=O)c1cccnc1N (centres unmarked) [compound 350]
– | 0.5 to 2.8 µM | CC(C)C[C@H]1CN(c2ccc(C3CC3)c(C(=O)c3cccnc3N)n2)CCN1 [compound 352]
0.05 to 0.5 µM | – | CC(C)C[C@H]1CN(c2ccc(OC(F)F)c(C(=O)c3cccnc3N)n2)CCN1 [compound 356]
– | 0.5 to 2.8 µM | CCCc1ccc(N2CCN[C@@H](CC(C)C)C2)nc1C(=O)c1cccnc1N [compound 385]
– | < 0.05 µM | Nc1ncccc1C(=O)c1nc(NC[C@@H](N)c2ccccc2)ccc1C(F)(F)F [compound 388]
0.05 to 0.5 µM | – | CC(C)C[C@H](N)CNc1ccc(C(F)(F)F)c(C(=O)c2cccnc2N)n1 [compound 396]
0.05 to 0.5 µM | – | COc1cccc(C2CN(c3ccc(C(F)(F)F)c(C(=O)c4cccnc4N)n3)CCN2)c1 (centres unmarked) [compound 397]
0.05 to 0.5 µM | – | Nc1ncccc1C(=O)c1nc(N2CCNC(c3ccccc3)C2)ccc1C(F)F (centres unmarked) [compound 404]
0.05 to 0.5 µM | – | CC(C)C[C@H](N)COc1ccc(C(F)(F)F)c(C(=O)c2cccnc2N)n1 [compound 406]
0.05 to 0.5 µM | – | CC#Cc1ccc(N2CCNCC2)nc1C(=O)c1cccnc1N [compound 412]
– | < 0.05 µM | Nc1ncccc1C(=O)c1nc(OCC(N)c2ccccc2)ccc1C(F)(F)F (centres unmarked) [compound 415]
– | 0.5 to 2.8 µM | CC(C)C[C@H]1CN(c2ccc(Cc3ccccc3)c(C(=O)c3cccnc3N)n2)CCN1 [compound 418]
